Results: patent US11733243B2, “Use of acamprosate to modulate ERK1/2 activation in animal models for FXS and ASD and individuals diagnosed with FXS and ASD” (Indiana University Research and Technology Corporation, priority 2013, dated 2023)
Values joined by “and” are separate entries in the source; they are usually repeats but may differ in a detail not shown here. Equal entries are not always repeated.

Tests used:
[1] = system: leptin, beta endorphin, cortisol; conditions: humans with alcohol dependence; cited from earlier work
[2] = system: youths with autistic disorder; assay: 12-week single-blind placebo lead-in trial of acamprosate in youths with autistic disorder: behavioral outcome measures; type: in vivo, human
Protocol: One study was a 12-week single-blind, placebo-controlled trial of acamprosate in 12 youths with autistic disorder was conducted. The primary outcome measured was the Clinical Global Impression Improvement (CGI-I) scale with several additional behavioral secondary outcome measures employed. In this study, secreted amyloid precursor protein (sAPP) was measured pre- and post acamprosate treatment as blood biomarker assay Result: Twelve subjects (mean age=10.4 yrs.) entered the study and nine subjects completed a two week placebo lead-in and entered active treatment (mean final dose=1,073 mg/day). Six of nine (67%) subjects receiving acamprosate were judged treatment responders with a CGI-I score of 1 “very much improved” or 2 “much improved”. […] Among secondary outcome measures analyzed, significant acamprosate-associated improvement was noted on measures of social behavior and hyperactivity. Acamprosate use was also associated with reductions in sAPP levels.
The first project enrolled 12 youth aged 5 to 17 years with fragile X syndrome and comorbid ASD in a 10-week open-label trial of acamprosate. The second project enrolled 12 youth aged 5 to 17 years diagnosed with idiopathic ASD in a 12-week single-blind placebo lead-in study of acamprosate. In both projects, concomitant dosing of psychotropic drugs remained stable throughout study. In each project, pre- and post-acamprosate treatment plasma levels of sAPP total and sAPPα were obtained. All APP assay samples were collected, chilled, and walked within 2 hours of blood draw to the lab for analysis. Plasma sAPP total and sAPPα were determined separately in serum using the ELISA kit obtained from Immuno Biological Laboratories (IBL, Gumma, Japan). The ELISA kit is validated to measure levels of sAPPα in human samples and able to detect as low as 0.09 ng/ml of sAPPα in a typical sample, with only 0.3% cross-reactivity to sAPP. Levels of sAPP total and sAPPα in plasma were reported in nanograms per milliliter (ng/mL). Statistical analyses of pre- and post-acamprosate sAPP total and sAPPα levels were conducted using paired T-tests. Finally an exploratory post-hoc analysis of potential correlation between percent change in sAPP total or sAPPα and percent change in scores on the Aberrant Behavior Checklist Social Withdrawal/Lethargy subscale (ABC-SW) was conducted. The ABC-SW measures social impairment which is a core symptom domain of ASD. Post-hoc analysis was done with Spearman correlation calculations. All data was analyzed in IBM SPSS Version 20.
A 12-week single-blind, placebo-controlled trial of the effect of acamprosate in the treatment of 12 youths with autistic disorder aged 5 to 17 years was carried out. In order to pilot test use of acamprosate in youth with autism targeting core social impairment, was conducted. All subjects and their family members were blinded to treatment status. All subjects participated in a 2 week placebo-lead-in phase prior to 10 weeks of treatment with acamprosate. For this project, enteric coated commercially available 333 mg acamprosate pills were over-encapsulated and identical matching placebo manufactured for the project. Placebo-responders, defined by a Clinical Global Impressions Improvement scale (CGI-I) score of 1 “very much improved” or 2 “much improved” (ratings anchored to core social deficits) at week 2 were asked to exit the study. During active treatment with acamprosate, dosing was increased in 333 mg increments per week over the first six weeks of active treatment to a maximum dose of 1,332 mg/day (weight<5 60 kg) or 1,998 mg/day (weight>60 kg). During the final four weeks of active drug treatment, subjects were maintained on a stable highest tolerated (optimal) dose. The primary outcome measure was the clinician-rated CGI-I anchored to symptoms of social impairment. […]

[3] = safety measures and adverse effects in the FXS trial; type: in vivo, human
Description: Safety assessment and monitoring began at screen when all subjects underwent a medical history, physical examination, and full psychiatric interview. A physical examination was also completed at end point. Vital signs, including height and weight, were obtained at each study visit. At screen, genetic testing for FXS was obtained if record of molecular testing utilizing Southern Blot and PCR was not available. At screen, week 6, and endpoint, laboratory tests of blood and urine, including CBC with differential and platelets, electrolyte panel, liver associated enzymes, lipid panel, and urine pregnancy test (in females) were obtained. An electrocardiogram was also obtained at screen and endpoint.
The pilot study ran for 10 weeks. Safety lab screens were carried out at weeks 6 and 10. Physiologic parameters measured during the safety screens were as follows: vital signs, LFTs, electrolyte panels, CBC with diff/plts, lipid panel, glucose, urinalysis and ECG.
In-person clinical visits were scheduled for every two weeks. Telephonic evaluations were carried out at weeks 1, 3, and 5. Each subject was evaluated for side effects at every interaction with the practitioner.

[4] = system: adult males diagnosed with FXS; conditions: 3 adult males, cited from earlier work
[5] = system: NMDA glutamate receptor; conditions: animal studies; cited from earlier work
[6] = system: fmr1 (fragile X gene) Knock Out mice; assay: training/test exploration and P.I. in WT and fmr1 KO mice; type: in vivo; parameters: training left / training right / training Total / test novel / test fam / test total: unit not given here
[7] = system: glutamate or GABA receptors subtypes; conditions: clinically relevant concentrations; cited from earlier work
[8] = system: alcohol intake; conditions: mouse, in vivo; cited from earlier work

For `CC(=O)NCCCS(=O)(=O)O` [Acamprosate, 3-Acetamidopropane-1-sulfonic acid], the hormone levels [1] is given as “lowers levels of several hormones: leptin, beta endorphin, cortisol”, the “treatment responders (CGI-I score of 1 or 2)” value ([2]; idiopathic ASD, nine subjects receiving acamprosate, mean final dose 1,073 mg/day) is given as 67% and the “mean CGI-I at last visit” value ([2]; idiopathic ASD, nine subjects, last observation carried forward) is given as 2. The CGI-S at endpoint ([2]; idiopathic ASD, baseline 4.22+/-0.4, p=0.013) was 3.7+/−0.5, the “ABC Lethargy/Social Withdrawal subscale (ABC-SW) at endpoint” value ([2]; idiopathic ASD, baseline 14.1+/-8.5, p=0.019) was 10.0+/−8.4 and the “ABC Hyperactivity subscale at endpoint” value ([2]; idiopathic ASD, baseline 25.4+/-12.6, p=0.005) was 16.6+/−12.4. For the same compound, the ADHD-RS at endpoint ([2]; idiopathic ASD, baseline 29.5+/-10.4, p=0.002) was 20.75+/−9.7, the “SRS total raw score at endpoint” value ([2]; idiopathic ASD, baseline 107+/-28, p=0.002) was 91.4+/−30 and the “youth judged responders to acamprosate (of those treated)” value ([2]; youth with idiopathic ASD) was 6 of 9. The “changes in lipids, electrolytes, liver function tests, or blood counts” value ([3]; 10 weeks) was “no clinically significant or mean changes”, the “changes in weight, pulse, or blood pressure” value ([3]; 10 weeks) was “No clinically significant changes” and the “Increased body rocking (mild), Number of Patients” value ([3]; 12 subjects) was 1. The “subjects who experienced a mild adverse event” value ([3]; 12 subjects) was 75%, the tolerability ([3]; 12 subjects, 10 weeks) was “well tolerated overall, with no severe or serious adverse effects” and the “changes on ECG including QTc interval” value ([3]; screen vs endpoint) was “No clinically significant changes were noted on ECG”. For the same compound, the “clinical response measured by the CGI-I” value ([4]; mean dose 1,221 mg/day, mean duration 21.3 weeks) was “all 3 subjects showed significant positive clinical response”, the “subjects with non-treatment limiting gastrointestinal distress (emesis and/or nausea)” value [4] was “Two” and the “action at the NMDA glutamate receptor” value [5] was “bind and act as an antagonist at the NMDA glutamate receptor”. For the same compound, the “training P.I. average (mean)” value ([6]; KO Acam group, KO Sal 0.022521, WT Sal 0.193298) was 0.06358, the “test P.I. average (mean)” value ([6]; KO Acam group, KO Sal 0.134837, WT Sal 0.167142) was 0.2684 and the “test P.I.” value ([6]; KO Acam, individual mice) was 0.3192 and 0.2294 and 0.5255 and 0.2717 and 0.3025 and −0.1161 and 0.3463. The test fam ([6]; KO Acam, individual mice) was 24.3 and 40.3 and 28.38 and 28.7 and 32.28 and 47.59 and 30.2, the test novel ([6]; KO Acam, individual mice) was 47.09 and 64.3 and 91.23 and 50.11 and 60.28 and 37.69 and 62.2 and the test total ([6]; KO Acam, individual mice) was 71.39 and 104.6 and 119.61 and 78.81 and 92.56 and 85.28 and 92.4. The “training P.I.” value ([6]; KO Acam, individual mice) was 0.1811 and 0.1143 and 0.08976 and −0.105 and 0.1648 and −0.1088 and 0.1088, the “training Total” value ([6]; KO Acam, individual mice) was 89.27 and 135.74 and 82.44 and 97.27 and 78.95 and 159.13 (2×) and the training left ([6]; KO Acam, individual mice) was 52.72 and 75.63 and 44.92 and 43.53 and 45.98 and 70.91 and 88.22. The training right ([6]; KO Acam, individual mice) was 36.55 and 60.11 and 37.52 and 53.74 and 32.97 and 88.22 and 70.91, the “direct binding to glutamate or GABA receptors subtypes” value [7] was “no direct binding” and the alcohol intake [8] was “reduced alcohol intake”.
